Here are results for 45 compounds from patent US5464861A, “2-thioindoles (selenoindoles) and related disulfides (selenides) which inhibit protein tyrosine kinases and which have antitumor properties” (Warner-Lambert, priority 1993, dated 1995).

Each structure is given as a SMILES string.

For one experiment, the target named is T1, epidermal growth factor receptor tyrosine kinase (Homo sapiens, UniProt P00533).
T1 construct: A native 170,000 epidermal growth factor receptor-kinase complex from shed plasma membrane vesicles; endogenous in cells
T1 sequence (P00533 25-1210): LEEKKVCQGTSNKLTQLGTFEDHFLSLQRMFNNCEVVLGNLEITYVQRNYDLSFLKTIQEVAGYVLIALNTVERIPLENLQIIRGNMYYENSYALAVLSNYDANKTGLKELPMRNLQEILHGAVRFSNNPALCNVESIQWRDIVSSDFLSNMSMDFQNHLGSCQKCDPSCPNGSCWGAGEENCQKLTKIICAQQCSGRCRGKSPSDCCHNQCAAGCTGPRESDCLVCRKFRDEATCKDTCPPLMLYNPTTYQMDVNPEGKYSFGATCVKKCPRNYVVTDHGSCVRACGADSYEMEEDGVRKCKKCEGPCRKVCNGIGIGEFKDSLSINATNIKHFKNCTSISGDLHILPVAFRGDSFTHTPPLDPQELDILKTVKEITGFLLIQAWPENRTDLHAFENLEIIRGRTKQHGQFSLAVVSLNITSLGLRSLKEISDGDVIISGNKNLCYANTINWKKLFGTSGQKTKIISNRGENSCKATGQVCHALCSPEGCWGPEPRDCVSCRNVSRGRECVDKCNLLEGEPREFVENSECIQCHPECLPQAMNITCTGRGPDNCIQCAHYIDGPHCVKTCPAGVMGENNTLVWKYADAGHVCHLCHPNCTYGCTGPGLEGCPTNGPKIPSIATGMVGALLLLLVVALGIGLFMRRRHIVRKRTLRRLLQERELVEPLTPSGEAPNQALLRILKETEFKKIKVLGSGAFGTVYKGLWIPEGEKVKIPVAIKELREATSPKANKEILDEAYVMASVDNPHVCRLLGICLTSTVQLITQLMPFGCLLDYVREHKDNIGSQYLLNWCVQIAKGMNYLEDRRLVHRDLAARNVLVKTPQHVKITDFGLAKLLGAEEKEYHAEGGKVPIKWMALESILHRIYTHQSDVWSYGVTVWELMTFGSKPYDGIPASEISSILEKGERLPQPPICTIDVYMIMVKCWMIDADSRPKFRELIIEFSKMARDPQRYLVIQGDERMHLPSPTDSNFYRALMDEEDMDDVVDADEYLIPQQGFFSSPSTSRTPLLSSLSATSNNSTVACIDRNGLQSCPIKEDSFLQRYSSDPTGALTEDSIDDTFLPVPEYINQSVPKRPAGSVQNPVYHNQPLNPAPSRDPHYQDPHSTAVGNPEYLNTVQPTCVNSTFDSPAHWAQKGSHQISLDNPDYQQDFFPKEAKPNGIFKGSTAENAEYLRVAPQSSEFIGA
T1 sequence (P01133 971-1023 partner limits assumed): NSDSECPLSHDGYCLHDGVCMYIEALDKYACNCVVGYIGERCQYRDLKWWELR
Description: EGF receptor tyrosine kinase assay (P^32 incorporation in GAT). The class given is biochemical.
Details: not given
The method, then: At the time of assay, membranes were solubilized in 4% Triton X-100 and glycerol. The reaction is carried out in wells of a 96-well microtiter plate in a total volume of […]. Buffer containing 20 mMHepes (pH 7.4), 15 mMMgCl2, mM MnCl2, and 0.02% BSA followed by […] of membrane protein and 150 ng of epidermal growth factor. The plates are incubated for 10 minutes at room temperature to activate the receptor kinase. […] ATP plus or minus compound are added and incubated 10 minutes at room temperature.
Turning to `O=[N+]([O-])CCc1c(SSc2[nH]c3ccccc3c2CC[N+](=O)[O-])[nH]c2ccccc12` [Compound 49, 2,2'-dithiobis[3-(2-nitroethyl)indole]], the IC50 (in general, the concentration that gives 50% inhibition) came to 84.1 µM.

The experiment is the same for the next values; noted with them: Table 2, EGRF-R; IC50 entries; read-out: IC50 (EGFR TK).
For the compound `CC(=O)c1c(SSc2c(C(C)=O)c3ccccc3n2C)n(C)c2ccccc12` [Compound 121, 2,2'-dithiobis(3-acetyl-1-methylindole)], the IC50 is 5.6 µM. On the same count and under the same terms, then `COC(=O)c1ccc(C(=O)c2c(SSc3c(C(=O)c4ccc(C(=O)OC)cc4)c4ccccc4n3C)n(C)c3ccccc23)cc1` [Compound 102, bis[3-(4'-carbomethoxybenzoyl)-1-methylindole-(2)]disulfide], with 6.1 µM.

In the case of `CC(=O)OC(Cc1c(SSc2[nH]c3ccccc3c2CC(OC(C)=O)C(=O)NCc2ccccc2)[nH]c2ccccc12)C(=O)NCc1ccccc1` (stereo not drawn) [Compound 63], the IC50 came to 60 µM. The same measure, in the same setting: under `CNC(=O)CCc1c(SSc2[nH]c3ccccc3c2CCC(=O)NC)[nH]c2ccccc12` [Compound 51] stands 7 µM; under `Cn1c(SSc2c(C#N)c3ccccc3n2C)c(C#N)c2ccccc21` [Compound 120], 6.9 µM; under `O=C(O)CCCc1c(SSc2[nH]c3ccccc3c2CCCC(=O)O)[nH]c2ccccc12` [Compound 65, bis[indolyl-3-butanoic acid-(2)]disulfide], 17.8 µM. On the same count and under the same terms, then `O=C(NCc1ccccc1)C(O)Cc1c(SSc2[nH]c3ccccc3c2CC(O)C(=O)NCc2ccccc2)[nH]c2ccccc12` (stereo not drawn) [Compound 64, 2,2'-dithiobis[α-hydroxy-N -(phenylmethyl)-1H-indole-3-propanamide]], with 29 µM; and `Cn1c(SSc2c(CCC(=O)O)c3ccccc3n2C)c(CCC(=O)O)c2ccccc21` [Compound 37], with 3.3 µM. As to `CNC(=O)c1c(SSc2[nH]c3ccccc3c2C(=O)NC)[nH]c2ccccc12` [Compound 127, 2,2'-dithiobis[N-methylindolinyl-3-carboxamide]], the IC50 came to 6.8 µM. `Cc1cccc2c(CCC(=O)O)c(SSc3[nH]c4c(C)cccc4c3CCC(=O)O)[nH]c12` [Compound 45, bis[7-methylindolyl-3-propanoic acid-(2)] disulfide]: the IC50 was found to be 1.6 µM. Turning to `CN1C(=S)C(C(=O)Nc2ccccc2)c2cc(Cl)ccc21` (stereo not drawn) [Compound 20, N-phenyl 5-chloro-1-methyl-2-thioxoindole-3-carboxamide], the IC50 turned out to be 9 µM. As to `CN1C(=S)C(CCC(=O)O)c2ccccc21` (stereo not drawn) [Compound 8, 3-(1-methyl-2-thioxo-3-indolinyl)propanoic acid], the IC50 worked out at 8.5 µM. Regarding `Cn1c(SSc2c(C(=O)c3ccc(C(=O)O)cc3)c3ccccc3n2C)c(C(=O)c2ccc(C(=O)O)cc2)c2ccccc21` [Compound 101, bis[3-(4'-carboxybenzoyl)-1-methylindole-(2)]disulfide], the IC50 was 5.5 µM. Regarding `COC(=O)c1ccc(CNC(=O)c2c(SSc3c(C(=O)NCc4ccc(C(=O)OC)cc4)c4ccccc4n3C)n(C)c3ccccc23)cc1` [Compound 110, 2,2'-dithiobis [N-(4'-carbomethoxy)benzyl 1-methylindolyl-3-carboxamide]], the IC50 was 13 µM. As for `CC(=O)Oc1cccc2c(C(=O)Nc3ccccc3)c(SSc3c(C(=O)Nc4ccccc4)c4cccc(OC(C)=O)c4n3C)n(C)c12` [Compound 95, 2,2'-dithiobis[N-phenyl-7-acetoxy-1-methylindolyl-3-carboxamide]], the IC50 is 9.4 µM. Same read-out and setting: under `CN(C)C(=O)CCc1c(SSc2[nH]c3ccccc3c2CCC(=O)N(C)C)[nH]c2ccccc12` [Compound 53] stands 4.2 µM; under `O=C(O)CC1C(=S)Nc2ccccc21` (stereo not drawn) [Compound 1, 2-(2-thioxo-3-indolinyl)acetic acid], 14.9 µM.

With `Cn1c(SSc2c(CCCC(=O)O)c3ccccc3n2C)c(CCCC(=O)O)c2ccccc21` [Compound 66], the IC50 came out at 8.3 µM. On the same count and under the same terms, under `O=C(O)CCCC1C(=S)Nc2ccccc21` (stereo not drawn) [Compound 15, 4-(2-thioxo-3-indolinyl)butanoic acid] stands 6.8 µM.

Turning to `Cc1ccc2c(CCC(=O)O)c(SSc3[nH]c4cc(C)ccc4c3CCC(=O)O)[nH]c2c1` [Compound 43, bis[methylindolyl-3-propanoate-(2)]disulfide], the IC50 was found to be 2.9 µM. In the case of `CN1C(=S)C(C(=O)c2ccc(C(=O)O)cc2)c2ccccc21` (stereo not drawn) [Compound 25, 3-(4'-carboxybenzoyl)-1-methyl-2-indolinethione], the 50% inhibitory concentration (IC50) stood at 8.7 µM.

Consider `CN1C(=S)C(CCCC(=O)O)c2ccccc21` (stereo not drawn) [Compound 16, 4-(1-methyl-2-thioxo-3-indolyl) butanoic acid], for which the IC50 came to 23 µM. Consider `NC(=O)CCC1C(=S)Nc2ccccc21` (stereo not drawn) [Compound 14, 3-(2-thioxo-3-indolinyl)propanamide], for which the IC50 was determined as 22 µM. Same read-out and setting: under `N#CCCc1c(SSc2[nH]c3ccccc3c2CCC#N)[nH]c2ccccc12` [Compound 48, 2,2'-dithiobis[3-indolylpropionitrile]] stands 35.5 µM.

The same experiment, now with this note: at 100 μM; EGRF-R; read-out: % Inhibition at 100 μM (EGFR TK).
Regarding `Cn1c(SSc2c(C(=O)Nc3ccccn3)c3ccccc3n2C)c(C(=O)Nc2ccccn2)c2ccccc21` [Compound 122, 2,2'-dithiobis [N-(2'-pyridyl)-1-methylindole-3-carboxamide]], the inhibition (as a rule, how much of the control response was suppressed) at 100 µM is 51%. As to `COC(=O)c1ccccc1NC(=O)c1c(SSc2c(C(=O)Nc3ccccc3C(=O)OC)c3ccccc3n2C)n(C)c2ccccc12` [Compound 108, 2,2'-dithiobis [N-(2-carbomethoxy)phenyl-1-methylindolyl-3-carboxamide]], the inhibition at 100 µM was determined as 20%. Take `Cn1c(S)c(C(=O)Nc2ccccc2)c2cccnc21` [Compound 19, N-phenyl (1-methyl-7-aza-2-thioxo-3-indolinyl)carboxamide]: the inhibition at 100 µM was determined as 10%. Same read-out and setting: then `O=C(CCC1C(=S)Nc2ccccc21)NCc1ccccc1` (stereo not drawn) [Compound 13, N-benzyl 3-(2-thioxo-3-indolinyl) propanamide], with 43%. In the case of `CCOC(=O)CCC1C(=S)N(C)c2ccccc21` (stereo not drawn) [Compound 12, ethyl 3-(1-methyl-2-thioxo-3-indolinyl)propanoate], the inhibition at 100 µM worked out at 3%.

As to `Cn1c(SSc2c(C(=O)Nc3ccccc3)c3cccc(Cl)c3n2C)c(C(=O)Nc2ccccc2)c2cccc(Cl)c21` [Compound 74, bis [N-phenyl-7-chloro-1-methylindolyl-3-carboxamide-(2)]disulfide], the inhibition at 100 µM came to 23%. As to `Cn1c([Se][Se]c2c(C(=O)OC(C)(C)C)c3ccccc3n2C)c(C(=O)OC(C)(C)C)c2ccccc21` [Compound 129, 2,2'-diselenobis [1-methyl-1H-indole-3-carboxylic acid, t-butyl ester]], the inhibition at 100 µM came to 31%.

As for `COC(=O)CC1C(=S)N(C)c2ccccc21` (stereo not drawn) [Compound 4, methyl 2-(1-methyl-2-thioxo-3-indolinyl)acetate], the inhibition at 100 µM came out at 27%. Same read-out and setting: then `COC(=O)CCC1C(=S)N(C)c2ccccc21` (stereo not drawn) [Compound 11, methyl 3-(1-methyl-2-thioxo-3-indolinyl)propanoate], with 24%; and `CCOC(=O)CC1C(=S)N(C)c2ccccc21` (stereo not drawn) [Compound 5, ethyl 2-(1-methyl-2-thioxo-3-indolinyl)acetate], with 4%; and `CC(=O)Oc1ccc2c(C(=O)Nc3ccccc3)c(SSc3c(C(=O)Nc4ccccc4)c4ccc(OC(C)=O)cc4n3C)n(C)c2c1` [Compound 93, 2,2'-dithiobis [N-phenyl-6-acetoxy-1-methylindolyl-3-carboxamide]], with 30%. In the case of `CN1C(=S)C(CC(=O)O)c2ccccc21` (stereo not drawn) [Compound 2, 2-(1-methyl-2-thioxo-3-indolinyl)acetic acid], the inhibition at 100 µM came to 26%. The same measure, in the same setting: under `CC(=O)NC(Cc1c(SSc2[nH]c3ccccc3c2CC(NC(C)=O)C(=O)NCc2ccccc2)[nH]c2ccccc12)C(=O)NCc1ccccc1` (racemic) [Compound 60] stands 53%; under `O=C(CCc1c(SSc2[nH]c3ccccc3c2CCC(=O)NCc2ccc(C(=O)O)c(O)c2)[nH]c2ccccc12)NCc1ccc(C(=O)O)c(O)c1` [Compound 58], 68%; under `O=C(Nc1ccccc1)c1c(SSc2[nH]c3ccccc3c2C(=O)Nc2ccccc2)[nH]c2ccccc12` [Compound 126, 2,2'-dithiobis [N-phenylindolyl-3-carboxamide]], 60%. On the same count and under the same terms, then `COC(=O)CCCC1C(=S)Nc2ccccc21` (stereo not drawn) [Compound 17, methyl 4-(2-thioxo-3-indolinyl)butanoate], with 12.5%; and `COC(=O)c1ccc(NC(=O)c2c(SSc3c(C(=O)Nc4ccc(C(=O)OC)cc4)c4ccccc4n3C)n(C)c3ccccc23)cc1` [Compound 104, 2,2'-dithiobis [N-(4'-carbomethoxy)phenyl-1-methylindolyl-3-carboxamide]], with 20%; and `CCOC(=O)CCc1c(SSc2[nH]c3ccc(C)cc3c2CCC(=O)OCC)[nH]c2ccc(C)cc12` [Compound 42, bis[ethyl 5-methylindolyl-3-propanoate-(2)]disulfide], with 26%.

Staying with this experiment, now noted: read-out: IC50 (EGFR TK).
As to `CCN(CC)CCn1c([Se][Se]c2c(C(=O)NC)c3ccccc3n2CCN(CC)CC)c(C(=O)NC)c2ccccc21` [Compound 135, 2,2'-diselenobis [1-[2-(diethylamino)ethyl] -N-methyl-1H-indole-3-carboxamide]], the IC50 is 6.9 µM.

Regarding `Cn1c([Se][Se]c2c(C(=O)O)c3ccccc3n2C)c(C(=O)O)c2ccccc21` [Compound 130, 2,2'-diselenobis [1-methyl-1H-indole-3-carboxylic acid]], the IC50 stood at 3.5 µM.
